Reference: PubChem BioAssay (NCI)
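Tested at 5 concentrations; 48 h exposure; 96-well plates; endpoints linearly interpolated, else capped at highest concentration. GI50 = concentration required for 50% inhibition of growth. The concentration for full growth arrest is given as TGI.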

Columns and labels:
Assay in all cases: growth of human tumour cells (NCI), 48 h
CAKI-1 renal = tested on: CAKI-1 renal
ACHN renal = tested on: ACHN renal
K-562 leukemia = tested on: K-562 leukemia
SW-620 colon = tested on: SW-620 colon
SF-268 CNS = tested on: SF-268 CNS
COLO 205 colon = tested on: COLO 205 colon
HS 578T breast = tested on: HS 578T breast
UO-31 renal = tested on: UO-31 renal
MOLT-4 leukemia = tested on: MOLT-4 leukemia
T-47D breast = tested on: T-47D breast

SMILES	GI50 (CAKI-1 renal) [µM]	TGI (CAKI-1 renal) [µM]	GI50 (ACHN renal) [µM]	TGI (ACHN renal) [µM]	GI50 (K-562 leukemia) [µM]	TGI (K-562 leukemia) [µM]	GI50 (SW-620 colon) [µM]	TGI (SW-620 colon) [µM]	GI50 (SF-268 CNS) [µM]	TGI (SF-268 CNS) [µM]	GI50 (COLO 205 colon) [µM]	TGI (COLO 205 colon) [µM]	GI50 (HS 578T breast) [µM]	TGI (HS 578T breast) [µM]	GI50 (UO-31 renal) [µM]	TGI (UO-31 renal) [µM]	TGI (MOLT-4 leukemia) [µM]	GI50 (MOLT-4 leukemia) [µM]	GI50 (T-47D breast) [µM]	TGI (T-47D breast) [µM]
O=C(NNc1ccc(F)cc1)C1CCC(CNS(=O)(=O)c2ccc(Cl)c(Cl)c2)CC1 (stereo not given)	2.87	28.1	4.08	13.4	1.71	> 50	9.03	> 50	4.76	> 50	14.4	> 50	10.5	42.4	16.8	> 50	–	–	–	–
C/C=C(/CCC1NCCC2c3ccccc3NC12)[Si](C)(C)C (stereo not given)	–	22.8	–	27.2	–	7.7	–	9.68	–	23.5	–	3.15	–	–	–	20.2	16.4	–	–	–
CN(C)CCC(CCN(C)C)=NOC(=O)c1ccccc1	–	> 100	–	> 100	–	> 100	–	> 100	–	> 100	–	> 100	–	–	–	> 100	> 100	–	–	–
NC(=O)c1ncn(CCN2CCN(C(=O)NCCCCCCNC(=O)N3CCN(CCn4cnc(C(N)=O)c4N)CC3)CC2)c1N	–	> 100	–	> 100	–	> 100	–	> 100	–	> 100	–	> 100	–	–	–	> 100	> 100	–	–	–
Cc1cc(Cl)ccc1NC(=O)CCCC(=O)C1CCC/C1=N\NC(=O)CC#N (stereo not given)	–	> 100	–	> 100	–	> 100	–	> 100	–	> 100	–	> 100	–	–	–	> 100	> 100	–	–	–
COc1cccc(NC(=O)C(C)(C)C)c1SSc1c(NC(=O)C(C)(C)C)cccc1OC	–	> 60.3	–	> 100	–	> 82.5	–	33.1	–	32.7	–	69.9	–	–	–	> 88.9	> 70.6	–	–	–
O=C(CC1(O)C(=O)Nc2ccccc21)c1ccc(F)cc1 (stereo not given)	–	> 100	–	> 100	–	> 100	–	> 100	–	> 100	–	> 100	–	–	–	> 100	> 100	–	–	–
COc1ccc(-c2nc(Nc3ccc(-c4nc5ccccc5[nH]4)cc3)nc(N3CCOCC3)n2)cc1	1.98	5.02	2.55	> 100	–	–	2.19	4.8	2.82	26.5	1.92	4.21	1.76	6.96	2.16	5.64	6.13	2.15	–	–
COC(=O)C1=Cc2cc(OC)c(OC)cc2[C@H](c2ccc(OC)c(OC)c2)C1C(=O)OC (stereo not given in full)	–	> 100	–	> 100	–	> 100	–	> 100	–	> 100	–	> 100	–	–	–	> 100	> 100	–	–	–
Cn1c(=O)c2ccc(-c3ccc(Br)cc3)nc2n(C)c1=O	–	–	–	–	–	> 100	–	> 100	–	> 100	–	> 100	–	–	–	> 100	> 100	–	–	–
COC(=O)C[CH2][Ge]([CH3])([CH3])[S]c1ccccc1	40.2	79.1	28.6	88.4	34.8	> 100	16.7	31.4	18.2	43.7	30.4	69.9	–	–	15.6	33.1	33.5	8.31	–	–
O=C(/C=C/c1ccccc1Cl)c1cccc2ccccc12	–	25.4	–	30.4	–	> 100	–	4.06	–	28.4	–	33.3	–	–	–	21.3	5.59	–	–	–
CC(=O)[CH-]C(=O)c1ccccc1.CC(=O)[CH-]C(=O)c1ccccc1.CC[C@H](/C=C/C(C)[C@H]1CCC2[C@@H]3CC=C4C[C@@H]([O-])CC[C@]4(C)C3CC[C@@]21C)C(C)C.CC[O-].[Ti+4] (stereo not given in full)	> 100	> 100	16.2	> 100	> 100	> 100	> 100	> 100	> 100	> 100	> 100	> 100	–	–	> 100	> 100	> 100	> 100	–	–
Cc1ccc(NC(=O)CC/C(CC(=O)C(C)(C)C)=N/NC(=O)C[N+](C)(C)C)cc1C	–	> 100	–	> 100	–	> 100	–	> 100	–	> 100	–	> 100	–	–	–	> 100	> 100	–	–	–
Cc1cc(=O)n2c3c(c4c(cc13)c(CO)cc(=O)n4C)OC2	–	> 100	–	63.5	–	97.7	–	> 100	–	52.6	–	> 100	–	–	–	40.2	–	–	–	–
CC1(c2cccc(N)c2)C2C(=O)NC(=O)C1C(=O)NC2=O (stereo not given)	–	> 100	–	78.5	–	67.3	–	> 100	–	> 100	–	50.2	–	–	–	67.8	47.6	–	–	–
CSc1nc2c(nc(N)n2C2OC(COC(C)=O)C(OC(C)=O)C(OC(C)=O)C2OC(C)=O)c(=O)n1C (stereo not given)	–	> 100	–	> 100	–	> 100	–	> 100	–	–	–	> 100	–	–	–	> 100	> 100	–	–	–
NCCCn1c2c(c3ccc([N+](=O)[O-])cc3c1=O)C(=O)c1cc(-c3ccccc3)ccc1-2	1.67	3.21	1.56	3.08	0.0443	0.185	0.182	0.336	–	–	–	–	–	–	1.73	3.41	0.595	0.235	–	–
CC(=O)[CH-]C(=O)c1ccccc1.CC(=O)[CH-]C(=O)c1ccccc1.CC1(C)OCC(C2OC3OC(C)(C)OC3C2[O-])O1.CC1(C)OCC(C2OC3OC(C)(C)OC3C2[O-])O1.[Ti+4] (stereo not given)	29.9	79.7	16.4	38.1	14.2	71.4	10.7	29.7	11.6	30	–	–	–	–	–	–	> 100	7.39	–	–
Nc1ccccc1NC(=O)c1ccc(CN2CCC/C(=C\c3ccccn3)C2=O)cc1	1.41	9.19	1.26	> 100	0.414	> 100	0.745	> 100	2.96	13	1.15	3.9	–	–	1.24	15.9	> 100	1.26	0.806	9.59
Cn1cc(-c2csc(-c3cn(CCCCN4CCCCC4)c4ccc(F)cc34)n2)c2cccnc21	–	–	–	–	–	–	1.83	3.44	1.68	3.32	–	–	12.4	53.8	–	–	–	–	15.7	41.4
CSc1ccc(OCC2OC2O)cc1 (stereo not given)	–	> 76.6	–	> 100	–	> 100	–	> 30.7	–	–	–	35.5	–	–	–	> 100	> 75.5	–	–	–
C1COCCOCCOCCOCCOCCO1.[Cl][Sn]([Cl])([c]1ccccc1)[c]1ccccc1	0.478	1.75	10.9	22.8	2.44	10.2	1.65	3.28	2.8	8.65	1.83	4.34	–	–	14.1	27.2	14.5	3.21	–	–
COc1cc2oc(-c3ccc(O)cc3O)c(CC=C(C)C)c(=O)c2c(O)c1/C=C/C(C)C	–	–	–	8.12	–	4.64	–	6.03	–	5.52	–	10.3	–	7.92	–	8.08	5.24	–	–	23.4
COC(=O)NN1C(C)=C(C(=O)OC)C2(C#N)C(C(=O)OC)=C(C)N(NC(=O)OC)C12N (stereo not given)	–	> 100	–	> 100	–	> 100	–	> 100	–	> 100	–	> 100	–	–	–	> 100	> 100	–	–	–
CCCCCCCCCCCCCCCC(=O)N[C@H](/C=C/[C@H](O)CCCCCCCCCCCCC)CO	–	–	> 100	> 100	> 100	> 100	> 100	> 100	> 100	> 100	> 100	> 100	> 100	> 100	> 100	> 100	> 100	> 100	> 100	> 100
CCCCCc1cc[n+](CC(=O)c2ccc([N+](=O)[O-])cc2)cc1	11.2	34.8	11	45.1	–	–	3.22	> 100	19.4	> 100	1.62	2.97	10.2	36.5	4.61	43.6	–	–	6.02	28.2
COC(=O)NC(=Nc1ccc(Oc2ccccc2)cc1NC=O)NC(=O)OC	–	–	–	> 100	–	> 100	–	> 100	–	> 100	–	0.618	–	–	–	69.6	> 100	–	–	–
